According to PMC10010643 (Cancer Chemotherapy and Pharmacology, 2023):
Values joined by “and” are separate entries in the source; they are usually repeats but may differ in a detail not shown here. Equal values may be shown once. “Also recorded” adds a separate entry of the source. Read-outs that look alike come from different tables or passages of the source.

Tests used:
[1] = test system: panel of different targets including enzymes, receptors, and ion channels; design: method as in PMID 36154172; settings: cited from earlier work
[2] = Maximum recommended starting dose in humans from preclinical studies; design: species or system human
Method: A starting dose of 5 mg was chosen as this was approximately twofold lower than the maximum recommended starting dose (MRSD) in humans of 9.6 mg determined from the results of a murine PD study, and was therefore not expected to have any pharmacological activity. This dose was also more than 30-fold lower than the MRSD of 162 mg calculated from the no observed adverse effect level in the toxicology species (mouse and dog).

[3] = test system: human macrophages; design: method as in PMID 36154172; settings: in vitro; cited from earlier work
[4] = test system: programmed cell death protein 1 and PD-L1; settings: pembrolizumab and atezolizumab; cited from earlier work
[5] = Plasma PK, Part A single oral doses in healthy participants; type: in vivo, human; settings: for AUC(0-t) / AUC(0-inf) / Cmax / Tmax / Vd/F / half-life: human, plasma; for Vd/F: read-out: Vz/F, geometric mean (CV%)
Method: A further two cohorts were recruited. […] Each individual participated in one treatment period only, with the exception of the food-effect cohort (cohort A3) in which there were two treatment periods separated by at least 7 days washout. Participants resided at the Clinical Research Unit (CRU) from 1 day ahead of dosing (day − 1) to day 3 and returned for a follow-up visit 5–7 days after their final dose. For all cohorts, doses were administered in the fasted state in the morning of day 1 of Treatment Period 1. In the food-effect cohort, doses were given 30 min after the start of a high-fat breakfast (973 calories total: approximately 150 protein calories, 250 carbohydrate calories, and 500–600 fat calories) on day 1 of Treatment Period 2. For cohorts A1 to A5 in Treatment Period 1, dosing occurred such that one pair (one active and one placebo) were dosed at least 24 h before the remaining participants. Continuation to dose those who remained was at the investigator’s discretion. Escalating doses were administered following satisfactory sponsor and investigator review of the safety and tolerability data (up to 48 h post-final dose) and PK data (up to 24 h post-final dose) from the lower dose levels.
Blood samples (4 mL) were collected in K3 EDTA tubes by venipuncture or cannulation. In Part A, samples were taken pre-dose and at 0.5, 1, 1.5, 2, 3, 4, 6, 8, 12, 16, 24, 36 and 48 h post-dose. In part B, samples were taken pre-dose on days 1 (pre-AM dose) and 10 (pre-final dose) and at 0.5, 1, 1.5, 2, 3, 4, 6, 8 and 12 h post-AM dose for day 1 and post-final dose for day 10. Samples were also taken on days 4–9 pre-AM dose, on day 11 at 24 and 36 h post-final dose, and on day 12 at 48 h post-final dose. Blood samples were centrifuged at 1500 g for 10 min at […] and split into two plasma aliquots.
Urine was collected by spot collection in Part A only before dosing and between 0–6, 6–12, 12–24, and 24–48 h post-dose. Blood and urine aliquots were stored in polypropylene tubes at − 70 °C until bioanalysis.
Noncompartmental PK analysis was performed on individual plasma and urine concentration data, using Phoenix® WinNonlin® 8.1 software (Certara USA Inc., Princeton NJ). Plasma PK parameter endpoints for Part A included area under the plasma concentration–time curve (AUC) from time 0 to infinity (AUC0–∞), AUC from time 0 to the time of the last quantifiable concentration (AUC0–tlast), maximum observed plasma concentration (Cmax), time of the maximum observed plasma concentration (Tmax), terminal half-life in plasma (t½), apparent total plasma clearance (CL/F), and apparent volume of distribution (Vz/F). Urine PK parameters calculated in Part A included amount of drug excreted in urine (Ae), percentage of dose excreted unchanged in urine (fe) and renal clearance (CLR).
Dose proportionality was analyzed for exposure parameters after fasted doses. The power model was used on AUC0–∞, AUC0–tlast, and Cmax on day 1 in Part A. Data were analyzed over two dose ranges: 50–400 mg (50 mg capsules) and 5–50 mg (5 mg capsules). An analysis of variance was used on AUC0–τ and Cmax on day 10 in Part B. The effect of food on AUC0–∞, AUC0–tlast, and Cmax at 50 mg in Part A was investigated using a mixed model which included treatment as a fixed effect and subject as a random effect.

[6] = Fraction of unbound GB1211 in plasma; type: in vitro ADME; settings: human
[7] = 50 mg after a high-fat meal vs fasted

## OC[C@H]1O[C@H](Sc2cncc(Br)c2)[C@H](O)[C@@H](n2cc(-c3cc(F)c(F)c(F)c3)nn2)[C@H]1O [GB1211]
[1]
  Safety profile against a panel of different targets: favorable safety profile
[2]; calculated from the no observed adverse effect level in the toxicology species (mouse and dog)
  Maximum recommended starting dose (MRSD): 162 mg
[2]; determined from the results of a murine PD study
  Maximum recommended starting dose (MRSD) in humans: 9.6 mg
[3]
  Galectin-3 expression on human macrophages: potently inhibited galectin-3 expression
[4]
  Galectin-3-induced inhibition of immune checkpoint inhibitor binding: reverses
[5]; [7]
  Delay of absorption in the fed state: 2 h and ~ 2 h
  Effect of food on systemic exposure: unaffected; also recorded: did not markedly affect systemic exposure; also recorded: minor food-effect on drug disposition
[5]; 5–50 mg (5 mg capsule) dose range
  Dose proportionality of systemic exposure: dose-proportional manner
[5]; 50–400 mg (50 mg capsule) dose range
  Dose proportionality of systemic exposure: sub-proportional manner
[5]; oral, 5 mg, single dose 5 mg (1 × 5 mg), fasted, read-out: AUC0–tlast, geometric mean (CV%)
  AUC(0-t): 677 ng·h/mL
[5]; oral, 5 mg, single dose 5 mg (1 × 5 mg), fasted, read-out: AUC0–∞, geometric mean (CV%)
  AUC(0-inf): 712 ng·h/mL
[5]; oral, 5 mg, single dose 5 mg (1 × 5 mg), fasted, read-out: Cmax, geometric mean (CV%)
  Cmax: 75.2 ng/mL
[5]; oral, 5 mg, single dose 5 mg (1 × 5 mg), fasted, read-out: Tmax, median (min–max)
  Tmax: 2 h
[5]; oral, 5 mg, single dose 5 mg (1 × 5 mg), fasted
  Vd/F: 114 L
[5]; oral, 5 mg, single dose 5 mg (1 × 5 mg), fasted, read-out: t½, arithmetic mean (SD) (converted)
  half-life: 11.3 h
[5]; oral, 20 mg, single dose 20 mg (4 × 5 mg), fasted, read-out: AUC0–tlast, geometric mean (CV%)
  AUC(0-t): 3150 ng·h/mL
[5]; oral, 20 mg, single dose 20 mg (4 × 5 mg), fasted, read-out: AUC0–∞, geometric mean (CV%)
  AUC(0-inf): 3350 ng·h/mL
[5]; oral, 20 mg, single dose 20 mg (4 × 5 mg), fasted, read-out: Cmax, geometric mean (CV%)
  Cmax: 365 ng/mL
[5]; oral, 20 mg, single dose 20 mg (4 × 5 mg), fasted, read-out: Tmax, median (min–max)
  Tmax: 1.75 h
[5]; oral, 20 mg, single dose 20 mg (4 × 5 mg), fasted
  Vd/F: 104 L
[5]; oral, 20 mg, single dose 20 mg (4 × 5 mg), fasted, read-out: t½, arithmetic mean (SD) (converted)
  half-life: 12.2 h
[5]; oral, 50 mg, Fasted, read-out: AUC0–tlast, geometric LS means
  AUC(0-t): 4180 ng·h/mL
[5]; oral, 50 mg, Fasted, read-out: AUC0–∞, geometric LS means
  AUC(0-inf): 4520 ng·h/mL
[5]; oral, 50 mg, Fasted, read-out: Cmax, geometric LS means
  Cmax: 358 ng/mL
[5]; oral, 50 mg, Fed, read-out: AUC0–tlast, geometric LS means
  AUC(0-t): 4930 ng·h/mL
[5]; oral, 50 mg, Fed, read-out: AUC0–∞, geometric LS means
  AUC(0-inf): 5420 ng·h/mL
[5]; oral, 50 mg, Fed, read-out: Cmax, geometric LS means
  Cmax: 389 ng/mL
[5]; oral, 50 mg, single dose 50 mg (1 × 50 mg), fasted, read-out: AUC0–tlast, geometric mean (CV%)
  AUC(0-t): 4180 ng·h/mL
[5]; oral, 50 mg, single dose 50 mg (1 × 50 mg), fasted, read-out: AUC0–∞, geometric mean (CV%)
  AUC(0-inf): 4520 ng·h/mL
[5]; oral, 50 mg, single dose 50 mg (1 × 50 mg), fasted, read-out: Cmax, geometric mean (CV%)
  Cmax: 358 ng/mL
[5]; oral, 50 mg, single dose 50 mg (1 × 50 mg), fasted, read-out: Tmax, median (min–max)
  Tmax: 3.04 h
[5]; oral, 50 mg, single dose 50 mg (1 × 50 mg), fasted
  Vd/F: 200 L
[5]; oral, 50 mg, single dose 50 mg (1 × 50 mg), fasted, read-out: t½, arithmetic mean (SD) (converted)
  half-life: 12.7 h
[5]; oral, 50 mg, single dose 50 mg (1 × 50 mg), fed, read-out: AUC0–tlast, geometric mean (CV%)
  AUC(0-t): 4930 ng·h/mL
[5]; oral, 50 mg, single dose 50 mg (1 × 50 mg), fed, read-out: AUC0–∞, geometric mean (CV%)
  AUC(0-inf): 5420 ng·h/mL
[5]; oral, 50 mg, single dose 50 mg (1 × 50 mg), fed, read-out: Cmax, geometric mean (CV%)
  Cmax: 389 ng/mL
[5]; oral, 50 mg, single dose 50 mg (1 × 50 mg), fed, read-out: Tmax, median (min–max)
  Tmax: 5 h
[5]; oral, 50 mg, single dose 50 mg (1 × 50 mg), fed
  Vd/F: 169 L
[5]; oral, 50 mg, single dose 50 mg (1 × 50 mg), fed, read-out: t½, arithmetic mean (SD) (converted)
  half-life: 12.9 h
[5]; oral, 50 mg, single dose 50 mg (10 × 5 mg), fasted, read-out: AUC0–tlast, geometric mean (CV%)
  AUC(0-t): 6890 ng·h/mL
[5]; oral, 50 mg, single dose 50 mg (10 × 5 mg), fasted, read-out: AUC0–∞, geometric mean (CV%)
  AUC(0-inf): 7480 ng·h/mL
[5]; oral, 50 mg, single dose 50 mg (10 × 5 mg), fasted, read-out: Cmax, geometric mean (CV%)
  Cmax: 861 ng/mL
[5]; oral, 50 mg, single dose 50 mg (10 × 5 mg), fasted, read-out: Tmax, median (min–max)
  Tmax: 1.75 h
[5]; oral, 50 mg, single dose 50 mg (10 × 5 mg), fasted
  Vd/F: 133 L
[5]; oral, 50 mg, single dose 50 mg (10 × 5 mg), fasted, read-out: t½, arithmetic mean (SD) (converted)
  half-life: 13.8 h
[5]; oral, 100 mg, single dose 100 mg (2 × 50 mg), fasted, read-out: AUC0–tlast, geometric mean (CV%)
  AUC(0-t): 5910 ng·h/mL
[5]; oral, 100 mg, single dose 100 mg (2 × 50 mg), fasted, read-out: AUC0–∞, geometric mean (CV%)
  AUC(0-inf): 6380 ng·h/mL
[5]; oral, 100 mg, single dose 100 mg (2 × 50 mg), fasted, read-out: Cmax, geometric mean (CV%)
  Cmax: 525 ng/mL
[5]; oral, 100 mg, single dose 100 mg (2 × 50 mg), fasted, read-out: Tmax, median (min–max)
  Tmax: 3.5 h
[5]; oral, 100 mg, single dose 100 mg (2 × 50 mg), fasted
  Vd/F: 282 L
[5]; oral, 100 mg, single dose 100 mg (2 × 50 mg), fasted, read-out: t½, arithmetic mean (SD) (converted)
  half-life: 12.8 h
[5]; oral, 200 mg, single dose 200 mg (4 × 50 mg), fasted, read-out: AUC0–tlast, geometric mean (CV%)
  AUC(0-t): 11500 ng·h/mL
[5]; oral, 200 mg, single dose 200 mg (4 × 50 mg), fasted, read-out: AUC0–∞, geometric mean (CV%)
  AUC(0-inf): 12900 ng·h/mL
[5]; oral, 200 mg, single dose 200 mg (4 × 50 mg), fasted, read-out: Cmax, geometric mean (CV%)
  Cmax: 1010 ng/mL
[5]; oral, 200 mg, single dose 200 mg (4 × 50 mg), fasted, read-out: Tmax, median (min–max)
  Tmax: 3.5 h
[5]; oral, 200 mg, single dose 200 mg (4 × 50 mg), fasted
  Vd/F: 344 L
[5]; oral, 200 mg, single dose 200 mg (4 × 50 mg), fasted, read-out: t½, arithmetic mean (SD) (converted)
  half-life: 15.5 h
[5]; oral, 400 mg, single dose 400 mg (8 × 50 mg), fasted, read-out: AUC0–tlast, geometric mean (CV%)
  AUC(0-t): 19000 ng·h/mL
[5]; oral, 400 mg, single dose 400 mg (8 × 50 mg), fasted, read-out: AUC0–∞, geometric mean (CV%)
  AUC(0-inf): 21600 ng·h/mL
[5]; oral, 400 mg, single dose 400 mg (8 × 50 mg), fasted, read-out: Cmax, geometric mean (CV%)
  Cmax: 1550 ng/mL
[5]; oral, 400 mg, single dose 400 mg (8 × 50 mg), fasted, read-out: Tmax, median (min–max)
  Tmax: 4 h
[5]; oral, 400 mg, single dose 400 mg (8 × 50 mg), fasted
  Vd/F: 398 L
[5]; oral, 400 mg, single dose 400 mg (8 × 50 mg), fasted, read-out: t½, arithmetic mean (SD) (converted)
  half-life: 15.2 h
[5]; oral, 5–50 mg (5 mg capsule), single dose, fasted, read-out: Median Tmax, range across doses
  Tmax: 1.75 to 2 h
[5]; oral, 50–400 mg (50 mg capsule), single dose, fasted, read-out: Median Tmax, range across doses
  Tmax: 3.04 to 4 h
[5]; po, single and multiple oral doses, fasted, read-out: Mean half-life, range across doses
  half-life: 11 to 16 h
[5]; po, single and multiple oral doses, fasted, read-out: Time of maximum plasma concentration (median), range across doses
  Tmax: 1.75 to 4 h
[5]; po, single oral dose, read-out: Arithmetic mean terminal half-life (t½), range across doses
  half-life: 11.3 to 15.5 h
[5]; single dose 5 mg (1 × 5 mg), fasted
  CL/F, geometric mean (CV%): 7.02 (24.5) L/h
[5]; single dose 20 mg (4 × 5 mg), fasted
  CL/F, geometric mean (CV%): 5.97 (10.2) L/h
[5]; single dose 50 mg (1 × 50 mg), fasted
  CL/F, geometric mean (CV%): 11.1 (43.2) L/h
[5]; single dose 50 mg (1 × 50 mg), fed
  CL/F, geometric mean (CV%): 9.23 (21.5) L/h
[5]; single dose 50 mg (10 × 5 mg), fasted
  CL/F, geometric mean (CV%): 6.69 (42.6) L/h
[5]; single dose 100 mg (2 × 50 mg), fasted
  CL/F, geometric mean (CV%): 15.7 (21.1) L/h
[5]; single dose 200 mg (4 × 50 mg), fasted
  CL/F, geometric mean (CV%): 15.5 (33.7) L/h
[5]; single dose 400 mg (8 × 50 mg), fasted
  CL/F, geometric mean (CV%): 18.5 (25.0) L/h
[6]
  fraction unbound: 0.0534
